In patent EP0984975B1, “MULTICYCLIC ERYTHROMYCIN DERIVATIVES” (Abbott Laboratories, priority 1997, dated 1998):

Assays:
Experiment in all cases: In vitro assay of antibacterial activity (agar dilution MIC)
Assay type in all cases: cell-based
CANDIDA ALBICANS CCH 442 = settings: BHI agar, 35-37 °C for 20 to 24 hours, unit assumed
Protocol: (§1) Representative compounds of the present invention were assayed in vitro for antibacterial activity as follows: Twelve petri dishes containing successive aqueous dilutions of the test compound mixed with 10 mL of sterilized Brain Heart Infusion (BHI) agar (Difco 0418-01-5) were prepared. Each plate was inoculated with 1:100 (or 1:10 for slow-growing strains, such as Micrococcus and Streptococcus) dilutions of up to 32 different microorganisms, using a Steers replicator block. The inoculated plates were incubated at 35-37 °C for 20 to 24 hours. In addition, a control plate, using BHI agar containing no test compound, was prepared and incubated at the beginning and end of each test.
(§2) An additional plate containing a compound having known susceptibility patterns for the organisms being tested and belonging to the same antibiotic class as the test compound was also prepared and incubated as a further control, as well as to provide test-to-test comparability. Erythromycin A was used for this purpose.
(§3) After incubation, each plate was visually inspected. The minimum inhibitory concentration (MIC) was defined as the lowest concentration of drug yielding no growth, a slight haze, or sparsely isolated colonies on the inoculum spot as compared to the growth control.

EN[…] ATCC 8043 = settings: BHI agar, 35-37 °C for 20 to 24 hours, unit assumed
Protocol: as §1, §2, §3

ESCHERICHIA COLI DC-2 = settings: BHI agar, 35-37 °C for 20 to 24 hours, unit assumed
Protocol: as §1, §2, §3

ESCHERICHIA COLI JUHL = settings: unit assumed
Protocol: as §1, §2, §3

ESCHERICHIA COLI SS = settings: unit assumed
Protocol: as §1, §2, §3

[1] = system: MYCOBACTERIUM SMEGMATIS ATCC 114; settings: BHI agar, 35-37 °C for 20 to 24 hours, unit assumed
Protocol: as §1, §2, §3

M[…] ATCC 4698 = settings: BHI agar, 35-37 °C for 20 to 24 hours, unit assumed
Protocol: as §1, §2, §3

M[…] ATCC 9341 = settings: BHI agar, 35-37 °C for 20 to 24 hours, unit assumed
Protocol: as §1, §2, §3

N. ASTEROIDES ATCC 9970 = settings: BHI agar, 35-37 °C for 20 to 24 hours, unit assumed
Protocol: as §1, §2, §3

[2] = system: STAPHYLOCOCCUS AUREUS 1775; settings: BHI agar, 35-37 °C for 20 to 24 hours, unit assumed
Protocol: as §1, §2, §3

[3] = system: STAPHYLOCOCCUS AUREUS A-5278; settings: BHI agar, 35-37 °C for 20 to 24 hours, unit assumed
Protocol: as §1, §2, §3

[4] = system: STAPHYLOCOCCUS AUREUS A5177; settings: BHI agar, 35-37 °C for 20 to 24 hours, unit assumed
Protocol: as §1, §2, §3

[5] = system: STAPHYLOCOCCUS AUREUS ATCC 6538P; settings: BHI agar, 35-37 °C for 20 to 24 hours, unit assumed
Protocol: as §1, §2, §3

[6] = system: STAPHYLOCOCCUS AUREUS CMX 553; settings: BHI agar, 35-37 °C for 20 to 24 hours, unit assumed
Protocol: as §1, §2, §3

[7] = system: STAPHYLOCOCCUS AUREUS CMX 642A; settings: BHI agar, 35-37 °C for 20 to 24 hours, unit assumed
Protocol: as §1, §2, §3

[8] = system: STAPHYLOCOCCUS AUREUS NCTC10649M; settings: BHI agar, 35-37 °C for 20 to 24 hours, unit assumed
Protocol: as §1, §2, §3

[9] = system: STAPHYLOCOCCUS EPIDERMIDIS 3519; settings: unit assumed
Protocol: as §1, §2, §3

[10] = system: STREPTOCOCCUS BOVIS A-5169; settings: BHI agar, 35-37 °C for 20 to 24 hours, unit assumed
Protocol: as §1, §2, §3

[11] = system: STREPTOCOCCUS PYOGENES 930; settings: BHI agar, 35-37 °C for 20 to 24 hours, unit assumed
Protocol: as §1, §2, §3

[12] = system: STREPTOCOCCUS PYOGENES EES61; settings: BHI agar, 35-37 °C for 20 to 24 hours, unit assumed
Protocol: as §1, §2, §3

[13] = system: STREPTOCOCCUS PYOGENES PIU 2548; settings: BHI agar, 35-37 °C for 20 to 24 hours, unit assumed
Protocol: as §1, §2, §3

STR[…] 508 = settings: BHI agar, 35-37 °C for 20 to 24 hours, unit assumed
Protocol: as §1, §2, §3

[14] = ESCHERICHIA COLI JUHL, BHI agar, 35-37 °C for 20 to 24 hours
[15] = ESCHERICHIA COLI SS, BHI agar, 35-37 °C for 20 to 24 hours
[16] = MYCOBACTERIUM SMEGMATIS ATCC 114
[17] = STAPHYLOCOCCUS EPIDERMIDIS 3519, BHI agar, 35-37 °C for 20 to 24 hours
[18] = STREPTOCOCCUS PYOGENES PIU 2548
[19] = STREPTOCOCCUS AGALACTIAE CMX 508

SMILES | Antibacterial Activity (MIC's) (CANDIDA ALBICANS CCH 442) | Antibacterial Activity (MIC's) (ESCHERICHIA COLI DC-2) | Antibacterial Activity (MIC's) (ESCHERICHIA COLI JUHL; [14]) | Antibacterial Activity (MIC's) (ESCHERICHIA COLI SS; [15]) | Antibacterial Activity (MIC's) [1, 16] | Antibacterial Activity (MIC's) (M[…] ATCC 4698; MICROCOCCUS LUTEUS ATCC 4698) | Antibacterial Activity (MIC's) (M[…] ATCC 9341; MICROCOCCUS LUTEUS ATCC 9341) | Antibacterial Activity (MIC's) (N. ASTEROIDES ATCC 9970) | Antibacterial Activity (MIC's) [2] | Antibacterial Activity (MIC's) [3] | Antibacterial Activity (MIC's) [4] | Antibacterial Activity (MIC's) [5] | Antibacterial Activity (MIC's) [6] | Antibacterial Activity (MIC's) [7] | Antibacterial Activity (MIC's) [8] | Antibacterial Activity (MIC's) ([10]; STREPTOCOCCUS BOVIS A-5169) | Antibacterial Activity (MIC's) ([11]; STREPTOCOCCUS PYOGENES 930) | Antibacterial Activity (MIC's) ([12]; STREPTOCOCCUS PYOGENES EES61) | Antibacterial Activity (MIC's) [13, 18] | Antibacterial Activity (MIC's) (STR[…] 508; [19]) | further results
CC[C@H]1OC(=O)[C@H](C)C(=O)[C@H](C)[C@@H](O[C@@H]2O[C@H](C)C[C@H](N(C)C)[C@H]2O)[C@](C)(OC)C[C@@H](C)C2Nc3ccccc3N3C(=O)O[C@@]1(C)[C@H]3[C@H]2C (single isomer, unassigned) [Ex 3, Compound of Formula (I): R^1 is methoxy; R^2 is H, R^3 is H, the double bond is absent, A, B, D and E are H, and Y and Z taken together with the atom to which they are attached form an oxo group] | > 100 µg/mL | > 100 µg/mL | > 100 µg/mL | 100 µg/mL | 50 µg/mL | 25 µg/mL | 3.1 µg/mL | 6.2 µg/mL | > 100 µg/mL | > 100 µg/mL | 25 µg/mL | 25 µg/mL | 50 µg/mL | 50 µg/mL | 50 µg/mL | 1.56 µg/mL | > 100 µg/mL | 3.1 µg/mL | 25 µg/mL | 3.1 µg/mL | Antibacterial Activity (MIC's) (EN[…] ATCC 8043; ENTEROCOCCUS FAECIUM ATCC 8043): 12.5 µg/mL; Antibacterial Activity (MIC's) [9, 17]: 50 µg/mL
CC[C@H]1OC(=O)[C@H](C)[C@@H](O[C@H]2C[C@@](C)(OC)[C@@H](O)[C@H](C)O2)[C@H](C)[C@@H](O[C@@H]2O[C@H](C)C[C@H](N(C)C)[C@H]2O)[C@](C)(O)C[C@@H](C)C(=O)[C@H](C)[C@@H](O)[C@]1(C)O [Ery A, Erythromycin A, reference compound] | > 100 µg/mL | 100 µg/mL | – | – | – | – | – | 0.1 µg/mL | > 100 µg/mL | > 100 µg/mL | 3.1 µg/mL | 0.2 µg/mL | 0.39 µg/mL | 0.39 µg/mL | 0.39 µg/mL | – | – | – | – | – | Antibacterial Activity (MIC's) (EN[…] ATCC 8043; EN[…] ATCC 8043): 0.1 µg/mL; Antibacterial Activity (MIC's) (ESCHERICHIA COLI JUHL): 50 µg/mL; Antibacterial Activity (MIC's) (ESCHERICHIA COLI SS): 0.39 µg/mL; Antibacterial Activity (MIC's) ([1]; MYC[…] ATCC 114): 1.56 µg/mL; Antibacterial Activity (MIC's) (M[…] ATCC 4698; M[…] ATCC 4698): 0.39 µg/mL; Antibacterial Activity (MIC's) (M[…] ATCC 9341; M[…] ATCC 9341): 0.02 µg/mL; Antibacterial Activity (MIC's) [9]: 0.2 µg/mL; Antibacterial Activity (MIC's) ([10]; STR[…] A-5169): 0.01 µg/mL; Antibacterial Activity (MIC's) ([11]; STR[…] 930): > 100 µg/mL; Antibacterial Activity (MIC's) ([12]; STR[…] EES61): 0.02 µg/mL; Antibacterial Activity (MIC's) ([13]; STR[…] PIU 2548): 3.1 µg/mL; Antibacterial Activity (MIC's) (STR[…] 508; STR[…] 508): 0.02 µg/mL
CC[C@H]1OC(=O)[C@H](C)C(=O)[C@H](C)[C@@H](O[C@@H]2O[C@H](C)C[C@H](N(C)C)[C@H]2O)[C@](C)(OC)C[C@@H](C)C2=Nc3cc(C)ccc3N3C(=O)O[C@@]1(C)[C@H]3[C@H]2C [Ex 4, Compound of Formula (I): R^1 is methoxy; R^2 is H, R^3 is absent, the double bond is present, A, B, and E are H, D is methyl, and Y and Z taken together with the atom to which they are attached form an oxo group] | > 100 µg/mL | > 100 µg/mL | > 100 µg/mL | 0.2 µg/mL | 100 µg/mL | 0.2 µg/mL | 0.1 µg/mL | 0.1 µg/mL | – | > 100 µg/mL | 0.78 µg/mL | 0.78 µg/mL | – | 0.78 µg/mL | 0.78 µg/mL | 0.01 µg/mL | > 100 µg/mL | 0.01 µg/mL | 0.2 µg/mL | 0.01 µg/mL | –
CC[C@H]1OC(=O)[C@H](C)C(=O)[C@H](C)[C@@H](O[C@@H]2O[C@H](C)C[C@H](N(C)C)[C@H]2O)[C@](C)(OC)C[C@@H](C)C2=Nc3cc(C#N)ccc3N3C(=O)O[C@@]1(C)[C@H]3[C@H]2C [Ex 6, Compound of Formula (I): R^1 is methoxy; R^2 is H, R^3 is absent, the double bond is present, A, B, and E are H, D is cyano and Y and Z taken together with the atom to which they are attached form an oxo group] | > 100 µg/mL | > 100 µg/mL | > 100 µg/mL | 3.1 µg/mL | 0.1 µg/mL | 0.39 µg/mL | 0.05 µg/mL | 0.39 µg/mL | > 100 µg/mL | > 100 µg/mL | – | 0.39 µg/mL | 0.39 µg/mL | 0.39 µg/mL | 0.39 µg/mL | 0.01 µg/mL | > 100 µg/mL | 0.01 µg/mL | 0.39 µg/mL | 0.05 µg/mL | Antibacterial Activity (MIC's) (EN[…] ATCC 8043; ENTEROCOCCUS FAECIUM ATCC 8043): 0.05 µg/mL; Antibacterial Activity (MIC's) [9, 17]: 0.2 µg/mL
